Experiments:
[1] = test system: H1N1; assay: Time-of-drug-addition assay, H1N1 in A549 cells; type: cell-based, influenza virus A (H1N1); settings: pre-treatment, co-treatment and post-treatment
[2] = test system: H1N1; assay: Antiviral effect in normal/serum-free medium during H1N1 infection of A549 cells; type: cell-based, influenza virus A (H1N1); settings: serum-free conditions
[3] = test system: IFNB1, IFIT1, IFIT2 and IFI44 mRNA; assay: IFNB1 and ISG mRNA expression in A549, PBMC and MEF cells (qRT-PCR); type: cell-based; settings: A549, PBMC, MEF cells
[4] = biological target: T1, NPC1 (Homo sapiens, UniProt O15118); assay: Bio-Tet streptavidin pull-down from cell lysates; type: binding
T1 sequence (O15118 23-1278): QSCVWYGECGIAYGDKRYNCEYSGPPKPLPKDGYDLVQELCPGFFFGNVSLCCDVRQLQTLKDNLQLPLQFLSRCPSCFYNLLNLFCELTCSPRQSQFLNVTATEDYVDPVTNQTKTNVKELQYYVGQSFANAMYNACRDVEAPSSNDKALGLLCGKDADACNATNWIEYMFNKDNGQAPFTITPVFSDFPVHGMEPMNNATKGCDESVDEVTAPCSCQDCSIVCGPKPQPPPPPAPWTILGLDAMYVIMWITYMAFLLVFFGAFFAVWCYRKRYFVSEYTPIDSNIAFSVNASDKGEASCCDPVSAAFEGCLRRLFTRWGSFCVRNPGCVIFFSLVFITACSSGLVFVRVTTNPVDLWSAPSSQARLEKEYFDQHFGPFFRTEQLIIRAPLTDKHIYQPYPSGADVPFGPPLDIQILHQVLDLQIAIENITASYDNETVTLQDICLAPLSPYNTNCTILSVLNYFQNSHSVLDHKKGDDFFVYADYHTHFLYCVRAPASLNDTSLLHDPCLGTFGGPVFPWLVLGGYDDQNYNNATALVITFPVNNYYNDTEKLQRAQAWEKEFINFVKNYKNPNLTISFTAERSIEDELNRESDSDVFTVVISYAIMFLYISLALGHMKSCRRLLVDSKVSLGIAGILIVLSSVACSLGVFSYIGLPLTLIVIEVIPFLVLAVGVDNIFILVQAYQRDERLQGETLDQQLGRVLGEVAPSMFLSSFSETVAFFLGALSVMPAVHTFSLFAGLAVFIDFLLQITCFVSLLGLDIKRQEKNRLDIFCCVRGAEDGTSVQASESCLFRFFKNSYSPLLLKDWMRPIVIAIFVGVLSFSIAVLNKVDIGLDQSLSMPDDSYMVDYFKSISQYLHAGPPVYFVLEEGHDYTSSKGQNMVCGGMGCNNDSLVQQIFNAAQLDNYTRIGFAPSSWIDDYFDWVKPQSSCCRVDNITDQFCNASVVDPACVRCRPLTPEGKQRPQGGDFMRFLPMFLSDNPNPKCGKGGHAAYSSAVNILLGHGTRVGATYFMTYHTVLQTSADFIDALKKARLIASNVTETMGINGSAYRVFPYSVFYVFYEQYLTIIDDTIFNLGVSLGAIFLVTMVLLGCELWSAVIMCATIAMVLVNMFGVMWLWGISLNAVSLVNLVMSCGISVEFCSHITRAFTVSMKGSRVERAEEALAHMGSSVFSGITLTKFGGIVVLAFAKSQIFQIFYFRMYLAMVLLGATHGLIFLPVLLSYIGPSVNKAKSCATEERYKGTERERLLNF

[5] = test system: VSV; type: cell-based, vesicular stomatitis virus (VSV)
[6] = test system: NPC1 and STING in lysosomal microdomains; assay: Lysosome immunoprecipitation with density gradient ultracentrifugation (LysoIP-DEG) in HepG2 cells; type: cell-based
Description: Figure 5. The dual functions of Tet to resist viral entry and activate antiviral immunity through the NPC1/STING axis. (a, b) Confocal analysis of Bio-Tet with CD63 (a) or NPC1 (b) in A549 cells, scale bar: 10 μm. (c) Binding affinity analysis of NPC1 with itraconazole, U18666A, or Tet was determined by SPR. (d, e) CETSA (d) and DARTS (e) analysis of NPC1 with Tet in HepG2 cells. (f) Streptavidin-covered beads with biotin, Bio-Tet, Bio-Tet + Tet were incubated with cell lysates. As indicated, the levels of NPC1 protein in bound proteins (IP) and total proteins (Input) were determined using immunoblotting. (g) Viral mRNA expression in siNPC1-transfected cells treated with Tet. (h) Viral mRNA expression in sgRNA-EV, sgRNA Npc1, and sgRNA Npc1 cells transfected with Flag-NPC1 treated with Tet. (i) Ifit1 and Ifit2 mRNA expression in sgRNA-EV, sgRNA Npc1, and sgRNA Npc1 cells transfected with Flag-NPC1 stimulated with DMXAA and Tet. (j) Schematic of LysoIP-DEG. (k) Immunoblotting analysis of the indicated proteins in LysoIP-DEG in Tet-treated HepG2 cells. (l) Schematic model of NPC1/STING axis-mediated viral inhibition by Tet. […] P values were calculated using one-way ANOVA (g, h, i). […]
The LysoIP-DEG was performed as previously described with minor modifications. […] The collected samples were dissolved in 50 µL 2 × SDS loading buffer and then assessed through western blotting analysis.

[7] = cited from earlier work

## COc1ccc2cc1Oc1ccc(cc1)C[C@H]1c3cc(c(OC)cc3CCN1C)Oc1c(OC)c(OC)cc3c1[C@H](C2)N(C)CC3 [Tet, tetrandrine]
[1]
  H1N1 infection: effectively suppressed
[2]
  antiviral effect on H1N1 entry: diminished
[3]
  IFNB1 and ISGs mRNA: upregulation
[4]
  competition of Bio-Tet/NPC1 interaction: competitively inhibited
[5]
  antiviral effect against VSV: diminished
[6]
  NPC1 and STING expression in lysosomal microdomains: enhanced NPC1 and STING expression in lysosomal microdomains after 6 hours
[7]
  systemic clearance: low
  volume of distribution: high
